Reference: patent US20080317752A1, “Inhibition of Tumorigenesis by Inhibition of a6b4 Integrin” (Sloan-Kettering Institute for Cancer Research, priority 2005, published 2008)

What was measured:
[1] = system: mammary tumors of MMTV-Neu (YD) mice; assay: Treatment of tumor-bearing MMTV-Neu(YD) mice, tumor volume by caliper; format: in vivo; details: for effect on tumor volume: Iressa 100 mg/Kg/day, day 24; for treated tumors that regress: Iressa 100 mg/Kg/day gastric gavage 24 days
[2] = system: mammary tumors of MMTV-Neu (YD) mice; assay: Anti-Ki-67 staining of tumor sections from treated MMTV-Neu(YD) mice; format: in vivo
Method: Tumor sections were stained by IHC with anti-Ki-67 followed by counterstaining with hematoxylin. Bar=[…].
Tumor sections were stained with anti-Ki-67 Mab, which labels proliferating cells.

activated ErbB2 = assay: Inhibition of activated ErbB2 (IC50); format: cell-based; details: Neu-b4-WT versus Neu-b4-1355T cells in vitro
[3] = system: tumor cells expressing wild-type b4; assay: Assembly of adherens and tight junctions in primary ErbB2-transformed tumor cells; format: cell-based, mouse
Excerpt: Tight junctions have emerged as key regulators of mammalian epithelial polarity and adhesion. Prompted by the observation that deletion of the b4 signaling domain increases the organization of tight junctions in mammary tumors, we used an ex vivo approach to examine the effect of b4 signaling on epithelial adhesion and polarity.

ErbB2 [4] = assay: Phosphorylation of ErbB2 (immunoprecipitation / immunoblotting); format: cell-based; details: for phosphorylation of the P-loop of ErbB2: immunoblotting of total lysates, single agent
Method: (§1) Biochemical studies were performed to study the molecular mechanism by which b4 signaling promotes mammary tumorigenesis.
Since SFKs can phosphorylate Y845 in the P-loop of the EGF-R, we examined the effect of SFK inhibition on phosphorylation of the corresponding tyrosine in the P-loop of ErbB2.

b4 = assay: Tyrosine phosphorylation of b4; format: cell-based
Method: as §1

SFKs = assay: Activation of SFKs; format: cell-based
Method: as §1

c-Jun = assay: Phosphorylation of c-Jun in Neu-b4-WT cells; format: cell-based, mouse
STAT3 = assay: Phosphorylation of STAT3 in Neu-b4-WT cells; format: cell-based, mouse
Excerpt: Prior studies have linked SFK-mediated phosphorylation of the P-loop of ErbB receptors to JAK-STAT signaling. Since deletion of the b4 signaling domain reduces SFK activation and association with ErbB2 and decreases phosphorylation of the P-loop of ErbB-2, we examined the effect of this deletion on STAT3 activation. Phosphorylation at Y705 is essential for dimerization and activation of STAT3. […] […]. STAT3 S727, which is targeted by ERK, was phosphorylated at similar levels in both types of cells.

ERK and Akt [5] = assay: Activation of ERK and Akt in Neu-b4 cells in vitro; format: cell-based, mouse; details: Neu-b4-1355T versus Neu-b4-WT cells
c-Jun and STAT3 = assay: Activation of c-Jun and STAT3 in tumor lysates of treated mice; format: in vivo; details: both types of tumors
ERK and Akt [6] = assay: Activation of ERK and Akt in tumor lysates of treated mice; format: in vivo; details: Neu(YD)/b4-1355T versus Neu(YD)/b4-WT tumors
[7] = system: mammary tumors of Neu(YD) mice; assay: Tumor apoptosis in treated mice; format: in vivo
Neu-b4-WT cells [8] = assay: Matrigel invasion assay in response to FBS; details: Iressa 10 μM
ErbB2 [9] = assay: Activation of ErbB2 in tumors of treated mice; details: Neu(YD)/b4-WT and Neu(YD)/b4-1355T tumors
Neu-b4-WT cells [10] = assay: Assembly of adherens and tight junctions in isogenic Neu-b4-WT cells; details: Neu-b4-WT cells in culture
Excerpt: To examine if the b4 integrin disrupts epithelial adhesion by a direct signaling mechanism, we generated isogenic Neu-transformed mammary tumor cells expressing either wildtype or mutant b4 by using an RNAi-reconstitution strategy.

Sequence of activated ErbB2 (P04626 23-1255): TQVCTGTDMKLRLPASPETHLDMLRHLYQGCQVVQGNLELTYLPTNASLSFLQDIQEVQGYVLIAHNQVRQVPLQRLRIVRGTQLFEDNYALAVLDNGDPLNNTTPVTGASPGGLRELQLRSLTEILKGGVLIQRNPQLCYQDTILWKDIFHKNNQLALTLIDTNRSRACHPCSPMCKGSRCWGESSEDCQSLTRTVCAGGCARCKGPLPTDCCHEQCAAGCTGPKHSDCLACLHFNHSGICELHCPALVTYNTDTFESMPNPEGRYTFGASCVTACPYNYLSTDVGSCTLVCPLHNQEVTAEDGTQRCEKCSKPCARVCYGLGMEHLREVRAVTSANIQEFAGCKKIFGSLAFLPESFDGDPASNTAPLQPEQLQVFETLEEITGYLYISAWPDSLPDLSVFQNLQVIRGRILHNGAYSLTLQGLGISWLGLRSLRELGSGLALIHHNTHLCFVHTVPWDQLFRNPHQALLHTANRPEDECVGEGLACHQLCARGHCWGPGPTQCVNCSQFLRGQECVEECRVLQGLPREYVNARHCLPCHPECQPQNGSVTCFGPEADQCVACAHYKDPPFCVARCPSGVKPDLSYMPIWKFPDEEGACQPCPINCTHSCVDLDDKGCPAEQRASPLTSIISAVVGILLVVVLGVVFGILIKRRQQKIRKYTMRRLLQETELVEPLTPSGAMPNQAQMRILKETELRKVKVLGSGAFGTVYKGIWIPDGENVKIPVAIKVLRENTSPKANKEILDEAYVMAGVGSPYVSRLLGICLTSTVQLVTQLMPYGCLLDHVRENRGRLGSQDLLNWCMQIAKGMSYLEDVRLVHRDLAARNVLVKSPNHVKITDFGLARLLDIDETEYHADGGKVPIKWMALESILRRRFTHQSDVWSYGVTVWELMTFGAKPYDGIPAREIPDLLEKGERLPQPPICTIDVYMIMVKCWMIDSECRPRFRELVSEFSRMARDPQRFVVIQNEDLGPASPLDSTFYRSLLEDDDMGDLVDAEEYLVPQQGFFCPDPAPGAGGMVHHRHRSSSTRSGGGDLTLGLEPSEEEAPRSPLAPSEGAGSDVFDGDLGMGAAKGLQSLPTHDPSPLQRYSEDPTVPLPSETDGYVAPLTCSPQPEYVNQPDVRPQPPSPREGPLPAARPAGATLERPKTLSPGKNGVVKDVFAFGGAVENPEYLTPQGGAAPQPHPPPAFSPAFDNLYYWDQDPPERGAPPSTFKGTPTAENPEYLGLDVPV

In the case of `COc1cccc2c1C(=O)c1c(O)c3c(c(O)c1C2=O)C[C@@](O)(C(=O)CO)C[C@@H]3O[C@H]1C[C@H](N)[C@H](O)[C@H](C)O1` [Doxorubicin], the tumor regression ([1]; Neu(YD)/b4-WT and Neu(YD)/b4-1355T mice, single dose 10 mg/Kg) is reported as “failed to induce tumor regression in either type of mouse”.

With `COc1cc2ncnc(Nc3ccc(F)c(Cl)c3)c2cc1OCCCN1CCOCC1` [Iressa, Gefitinib] the “effect on tumor volume” value ([1]; Neu(YD)/b4-1355T tumors) was “induced regression”, the “effect on tumor volume” value ([1]; Neu(YD)/b4-WT tumors) was “only reduced the rate of growth” and the “treated tumors that regress” value ([1]; control group (wild-type b4 mice)) was roughly 20%. For the same molecule, the “treated tumors that regress” value ([1]; tumors arising in b4-mutant mice) was “About 80%”, the tumor cell proliferation ([2]; Neu(YD)/b4-1355T mice) was “inhibited tumor cell proliferation” and the tumor cell proliferation ([2]; Neu(YD)/b4-WT mice) was “more modest inhibitory effect”. For the same molecule, the “apparent IC50, comparison of cell types” value (activated ErbB2) was “equal apparent IC50”, the “reassembly of adherens and tight junctions” value [3] was “promoted reassembly of both adherens and tight junctions” and the “phosphorylation of ErbB2 at its major autophosphorylation site” value (ErbB2 [4]) was “suppressed”. For the same molecule, the “tyrosine phosphorylation of ErbB2” value (ErbB2 [4]) was “suppressed”, the “phosphorylation of the P-loop of ErbB2” value (ErbB2 [4]) was “inhibit phosphorylation of the P-loop of ErbB2 to a significant extent” and the “tyrosine phosphorylation of b4” value (b4) was “suppressed”. For the same molecule, the “activation of SFKs” value (SFKs) was “did not affect”, the “phosphorylation of c-Jun” value (c-Jun) was “inhibited phosphorylation of c-Jun in Neu-b4-WT cells, but at concentrations higher than those required to suppress activation of ERK” and the “phosphorylation of STAT3” value (STAT3) was “inhibited phosphorylation of STAT3 in Neu-b4-WT cells at concentrations higher than those necessary to suppress activation of ERK”. The “activation of ERK and Akt in vitro” value (ERK and Akt [5]) was “at doses lower than in Neu-b4-WT cells”, the “activation of c-Jun and STAT3 in tumor lysates” value (c-Jun and STAT3) was “did not suppress but seemed to increase to a small extent” and the “activation of ERK and Akt in tumor lysates” value (ERK and Akt [6]) was “inhibited activation of ERK and Akt in Neu(YD)/b4-1355T tumors by an extent larger than it did in Neu(YD)/b4-WT tumors”. The “tumor apoptosis, comparison of genotypes” value ([7]; Neu(YD)/b4-1355T versus Neu(YD)/b4-WT mice) was “increased tumor apoptosis in Neu(YD)/b4-1355T mice to a larger extent than it did in Neu(YD)/b4-WT mice”, the overall apoptotic rates ([7]; both genotypes, treated) was “less than 1%” and the Matrigel invasion (Neu-b4-WT cells [8]) was “prevented their invasion”. For the same molecule, the “activation of ErbB2 in tumors” value (ErbB2 [9]) was “suppressed activation of ErbB2 in both types of tumors” and the “organization of adherens and tight junctions” value (Neu-b4-WT cells [10]) was “failed to organize both types of junctions, unless they were treated with Iressa”.

For `CC(C)(C)n1nc(-c2ccc(Cl)cc2)c2c(N)ncnc21` [PP2], the “phosphorylation of ErbB2 at its major autophosphorylation site” value (ErbB2 [4]) was “exerted the opposite effects”, the “tyrosine phosphorylation of ErbB2” value (ErbB2 [4]) was “only partially inhibited” and the “phosphorylation of the P-loop of ErbB2” value (ErbB2 [4]) was “inhibit phosphorylation of the P-loop of ErbB2 to a significant extent”. The “tyrosine phosphorylation of b4” value (b4) was “suppressed” and the “activation of SFKs” value (SFKs) was “exerted the opposite effects”.
